Values quoted from earlier work as cited in PMC12144996 (Acta Pharmaceutica Sinica. B, 2025).

Test system: SARS-CoV-2 variants of concern (VOCs)
Details: cited from earlier work

Q: With `CC(C)C(=O)OC[C@H]1O[C@@](C#N)(c2ccc3c(N)ncnn23)[C@H](O)[C@@H]1O` [ATV006] as the compound, how does the “Antiviral activity against SARS-CoV-2 variants of concern” value read?
A: The value was “potent antiviral activity”.
